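Five compound concentrations were applied to cells in 96-well plates for 48 hours; endpoints were derived by simple linear interpolation of the resulting dose-response curve. Here, GI50 denotes the concentration required for 50% inhibition of growth.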 The source made the active and inactive calls. No stated cut-off is given here; in the data, active = GI50 up to about 1.1 µM and inactive = higher.
What was measured:
Assay in all cases: growth of human tumour cells (NCI), 48 h
EKVX = tested on: EKVX
OVCAR-3 = tested on: OVCAR-3
M14 = tested on: M14
NCI-H226 = tested on: NCI-H226
SK-MEL-2 = tested on: SK-MEL-2
UACC-62 = tested on: UACC-62
A549 = tested on: A549
SF-539 = tested on: SF-539
KM12 = tested on: KM12
UO-31 = tested on: UO-31
M19-MEL = tested on: M19-MEL
OVCAR-4 = tested on: OVCAR-4
HOP-18 = tested on: HOP-18
MOLT-4 = tested on: MOLT-4
DMS-114 = tested on: DMS-114
COLO 205 = tested on: COLO 205
HT-29 = tested on: HT-29
HCC 2998 = tested on: HCC 2998
TK-10 = tested on: TK-10
Malme-3M = tested on: Malme-3M
SNB-19 = tested on: SNB-19
K562 = tested on: K562
786-0 = tested on: 786-0
DLD-1 = tested on: DLD-1
SK-MEL-5 = tested on: SK-MEL-5
OVCAR-8 = tested on: OVCAR-8
HCT-116 = tested on: HCT-116
SF-295 = tested on: SF-295
SNB-78 = tested on: SNB-78
IGROV-1 = tested on: IGROV-1
HOP-92 = tested on: HOP-92
SW-620 = tested on: SW-620
UACC-257 = tested on: UACC-257
RPMI-8226 = tested on: RPMI-8226
HL-60 = tested on: HL-60
CCRF-CEM = tested on: CCRF-CEM
LXFL 529 = tested on: LXFL 529
SK-OV-3 = tested on: SK-OV-3
HOP-62 = tested on: HOP-62
CAKI-1 = tested on: CAKI-1
SNB-75 = tested on: SNB-75
SF-268 = tested on: SF-268
U-251 = tested on: U-251
HCT-15 = tested on: HCT-15
NCI-H460 = tested on: NCI-H460
NCI-H522 = tested on: NCI-H522
SR = tested on: SR
RXF 393 = tested on: RXF 393
SK-MEL-28 = tested on: SK-MEL-28
KM-20L2 = tested on: KM-20L2
ACHN = tested on: ACHN
NCI-H23 = tested on: NCI-H23
SN12C = tested on: SN12C
DMS-273 = tested on: DMS-273
OVCAR-5 = tested on: OVCAR-5
LOX IMVI = tested on: LOX IMVI

`CSc1nc(NC2OC(COC(C)=O)C(OC(C)=O)C(OC(C)=O)C2OC(C)=O)c(/N=C(\C)C(C)=O)c(=O)n1C` (stereo not given) was tested, and the GI50 (EKVX) was > 100 µM (inactive), the GI50 (OVCAR-3) was > 100 µM (inactive) and the GI50 (M14) was > 100 µM (inactive). For the same compound, the GI50 (NCI-H226) was > 100 µM (inactive), the GI50 (SK-MEL-2) was > 100 µM (inactive) and the GI50 (UACC-62) was > 100 µM (inactive). The GI50 (A549) was > 100 µM (inactive), the GI50 (SF-539) was > 100 µM (inactive) and the GI50 (KM12) was > 100 µM (inactive). For the same compound, the GI50 (UO-31) was > 100 µM (inactive), the GI50 (M19-MEL) was > 100 µM (inactive) and the GI50 (OVCAR-4) was > 100 µM (inactive). For the same compound, the GI50 (HOP-18) was > 100 µM (inactive), the GI50 (MOLT-4) was > 100 µM (inactive) and the GI50 (DMS-114) was > 100 µM (inactive). The GI50 (COLO 205) was > 100 µM (inactive), the GI50 (HT-29) was > 100 µM (inactive) and the GI50 (HCC 2998) was > 100 µM (inactive). For the same compound, the GI50 (TK-10) was > 100 µM (inactive), the GI50 (Malme-3M) was > 100 µM (inactive) and the GI50 (SNB-19) was > 100 µM (inactive). The GI50 (K562) was > 100 µM (inactive), the GI50 (786-0) was > 100 µM (inactive) and the GI50 (DLD-1) was > 100 µM (inactive). For the same compound, the GI50 (SK-MEL-5) was > 100 µM (inactive), the GI50 (OVCAR-8) was > 100 µM (inactive) and the GI50 (HCT-116) was > 100 µM (inactive). The GI50 (SF-295) was > 100 µM (inactive), the GI50 (SNB-78) was > 100 µM (inactive) and the GI50 (IGROV-1) was > 100 µM (inactive). The GI50 (HOP-92) was > 100 µM (inactive), the GI50 (SW-620) was > 100 µM (inactive) and the GI50 (UACC-257) was > 100 µM (inactive). For the same compound, the GI50 (RPMI-8226) was > 100 µM (inactive), the GI50 (HL-60) was > 100 µM (inactive) and the GI50 (CCRF-CEM) was > 100 µM (inactive). The GI50 (LXFL 529) was > 100 µM (inactive), the GI50 (SK-OV-3) was > 100 µM (inactive) and the GI50 (HOP-62) was > 100 µM (inactive). For the same compound, the GI50 (CAKI-1) was > 100 µM (inactive).

With `CC(C)[C@H]1CO[C@@H]2O[C@H](C)CC(=O)N21` the GI50 (EKVX) was > 100 µM (inactive), the GI50 (OVCAR-3) was > 100 µM (inactive) and the GI50 (M14) was > 100 µM (inactive). The GI50 (NCI-H226) was > 100 µM (inactive), the GI50 (SNB-75) was > 100 µM (inactive) and the GI50 (SF-268) was > 100 µM (inactive). For the same compound, the GI50 (SK-MEL-2) was > 100 µM (inactive), the GI50 (UACC-62) was > 100 µM (inactive) and the GI50 (A549) was > 100 µM (inactive). The GI50 (SF-539) was > 100 µM (inactive), the GI50 (KM12) was > 100 µM (inactive) and the GI50 (U-251) was > 100 µM (inactive). For the same compound, the GI50 (UO-31) was > 100 µM (inactive), the GI50 (M19-MEL) was > 100 µM (inactive) and the GI50 (OVCAR-4) was > 100 µM (inactive). For the same compound, the GI50 (HOP-18) was > 100 µM (inactive), the GI50 (HCT-15) was greater than 100 µM and the GI50 (MOLT-4) was > 100 µM (inactive). For the same compound, the GI50 (DMS-114) was > 100 µM (inactive), the GI50 (COLO 205) was > 100 µM (inactive) and the GI50 (HT-29) was > 100 µM (inactive). The GI50 (TK-10) was > 100 µM (inactive), the GI50 (Malme-3M) was > 100 µM (inactive) and the GI50 (NCI-H460) was > 100 µM (inactive). For the same compound, the GI50 (SNB-19) was > 100 µM (inactive), the GI50 (NCI-H522) was > 100 µM (inactive) and the GI50 (K562) was > 100 µM (inactive). For the same compound, the GI50 (786-0) was > 100 µM (inactive), the GI50 (DLD-1) was > 100 µM (inactive) and the GI50 (SK-MEL-5) was > 100 µM (inactive). For the same compound, the GI50 (OVCAR-8) was > 100 µM (inactive), the GI50 (HCT-116) was > 100 µM (inactive) and the GI50 (SR) was > 100 µM (inactive). For the same compound, the GI50 (SF-295) was > 100 µM (inactive), the GI50 (RXF 393) was > 100 µM (inactive) and the GI50 (IGROV-1) was > 100 µM (inactive). For the same compound, the GI50 (HOP-92) was > 100 µM (inactive), the GI50 (SW-620) was > 100 µM (inactive) and the GI50 (UACC-257) was > 100 µM (inactive). The GI50 (RPMI-8226) was > 100 µM (inactive), the GI50 (HL-60) was > 100 µM (inactive) and the GI50 (SK-MEL-28) was > 100 µM (inactive). The GI50 (CCRF-CEM) was > 100 µM (inactive), the GI50 (LXFL 529) was > 100 µM (inactive) and the GI50 (SK-OV-3) was > 100 µM (inactive). The GI50 (KM-20L2) was > 100 µM (inactive), the GI50 (ACHN) was > 100 µM (inactive) and the GI50 (NCI-H23) was > 100 µM (inactive). The GI50 (HOP-62) was > 100 µM (inactive), the GI50 (SN12C) was > 100 µM (inactive) and the GI50 (CAKI-1) was > 100 µM (inactive).

For `CCCCCCC1NN(C(C)=O)C(CCCCCC)NN1C(C)=O` (stereo not given), the GI50 (EKVX) was > 100 µM (inactive), the GI50 (OVCAR-3) was > 100 µM (inactive) and the GI50 (M14) was > 100 µM (inactive). For the same compound, the GI50 (NCI-H226) was > 100 µM (inactive), the GI50 (SNB-75) was > 100 µM (inactive) and the GI50 (SK-MEL-2) was > 100 µM (inactive). For the same compound, the GI50 (UACC-62) was > 100 µM (inactive), the GI50 (SF-539) was > 100 µM (inactive) and the GI50 (KM12) was > 100 µM (inactive). For the same compound, the GI50 (U-251) was > 100 µM (inactive), the GI50 (UO-31) was > 100 µM (inactive) and the GI50 (M19-MEL) was > 100 µM (inactive). The GI50 (OVCAR-4) was > 100 µM (inactive), the GI50 (HOP-18) was > 100 µM (inactive) and the GI50 (HCT-15) was greater than 100 µM. The GI50 (MOLT-4) was > 100 µM (inactive), the GI50 (COLO 205) was > 100 µM (inactive) and the GI50 (HT-29) was > 100 µM (inactive). The GI50 (HCC 2998) was > 100 µM (inactive), the GI50 (TK-10) was > 100 µM (inactive) and the GI50 (DMS-273) was > 100 µM (inactive). For the same compound, the GI50 (Malme-3M) was > 100 µM (inactive), the GI50 (NCI-H460) was 17.7 µM (inactive) and the GI50 (SNB-19) was > 100 µM (inactive). The GI50 (NCI-H522) was > 100 µM (inactive), the GI50 (K562) was 32 µM (inactive) and the GI50 (786-0) was > 100 µM (inactive). For the same compound, the GI50 (DLD-1) was 52.1 µM (inactive), the GI50 (SK-MEL-5) was > 100 µM (inactive) and the GI50 (OVCAR-8) was > 100 µM (inactive). For the same compound, the GI50 (HCT-116) was > 100 µM (inactive), the GI50 (SF-295) was > 100 µM (inactive) and the GI50 (IGROV-1) was > 100 µM (inactive). For the same compound, the GI50 (HOP-92) was > 100 µM (inactive), the GI50 (SW-620) was 20.4 µM (inactive) and the GI50 (OVCAR-5) was > 100 µM (inactive). The GI50 (UACC-257) was > 100 µM (inactive), the GI50 (LOX IMVI) was 19.9 µM (inactive) and the GI50 (RPMI-8226) was 24 µM (inactive). The GI50 (HL-60) was 46.5 µM (inactive), the GI50 (CCRF-CEM) was 42.2 µM (inactive) and the GI50 (LXFL 529) was > 100 µM (inactive). The GI50 (SK-OV-3) was > 100 µM (inactive), the GI50 (KM-20L2) was > 100 µM (inactive) and the GI50 (ACHN) was > 100 µM (inactive). The GI50 (NCI-H23) was > 100 µM (inactive), the GI50 (HOP-62) was > 100 µM (inactive) and the GI50 (SN12C) was > 100 µM (inactive). For the same compound, the GI50 (CAKI-1) was > 100 µM (inactive).
